Results from patent US20050130232A1, “Methods of screening for compounds that modulate hormone receptor activity” (Allergan, Inc., priority 2001, published 2005).

Test system: MAP kinase (MAPK or ERK1/2)
Experiment: MAP kinase phosphorylation in cells treated with RXR agonist (anti-phospho-MAPK immunoblot)
Type: cell-based
Procedure: Cells were lysed directly with 1×SDS sample buffer and the cell lysates were separated by SDS-PAGE and immunoblotted with anti-phospho-MAPK. […] Differentiated 3T3 adipocytes were starved, stimulated, and manipulated as described above. […] Detection of MAP kinase phosphorylation was performed as described above with anti-phospho-MAPK from Promega.
MAP kinase (MAPK or ERK1/2) is activated by phosphorylation on Thr and Tyr residues of a TEY motif by the dual-specific MAP kinase kinase (MEK). […] As further shown in FIG. 3C, the response was dose-dependent (0.01-100 nM), with maximal stimulation at 0.1 nM.

With CC(/C=C/[C@@H]1C[C@]1(C)c1ccc2c(c1)C(C)(C)CCC2(C)C)=C\C(=O)O [AGN194204] as the molecule, how does the “duration of increased MAP kinase phosphorylation” value read?
Its value is “about 20 minutes”.

What about the “phosphorylation of MAP kinase” value (3T3-L1 fibroblasts) of the same molecule?
Its value is “increased phosphorylation of MAP kinase”.

And the “concentration of maximal stimulation of MAP kinase phosphorylation” value (3T3-L1 fibroblasts, 5 minutes)?
The value was 0.1 nM.

What about the “dose-dependent range of MAP kinase response” value (3T3-L1 fibroblasts, 5 minutes) of the same molecule?
The value was 10 to 100000 pM.

And the “time to increased MAP kinase phosphorylation” value (after treatment)?
The value was ≤ 5 min.

What about the “phosphorylation of MAP kinase” value (differentiated 3T3 adipocytes) of the same molecule?
Its value is “increased phosphorylation of MAP kinase”.
